This is an account of results in patent US10865208B2, “ATG7 inhibitors and the uses thereof” (Millennium Pharmaceuticals, Inc., priority 2016, dated 2020).

By pIC50 is commonly meant the negative decadic logarithm of the IC50, by convention in mol/L. As a reminder, the inhibition is the share of the control response that was lost under treatment.

Each structure is given as a SMILES string. pIC50: −log10 of the molar value.

In this test the target is recombinant human His-ATG7 enzyme (Homo sapiens (Human), UniProt O95352). Put plainly: ATG7 Enzyme Assay (HTRF/FRET, ATG3-GST and Flag-Gabarap). The following applies: for inhibition at 0.111 µM: Concentration 0.111 μM; for inhibition at 0.111 µM / inhibition at 0.123 µM: read-out: Percent Inhibition; for inhibition at 0.123 µM: Concentration 0.123 μM. Format: biochemical. The method in brief: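 0.15 nM His-ATG7 was reacted with 5 nM ATG3-GST, 5 nM Flag-Gabarap and 10 μM ATP in HEPES pH 7.5 containing MgCl2, GSH and TCEP for 105 min at 24° C, then stopped with EDTA/KF. Eu-anti-Flag and anti-GST-APC HTRF was read after 2 h. Results are given as single-concentration % inhibition or IC50.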
In general terms: TR-FRET usually uses a lanthanide donor and a delayed reading to cut background.

Chain of recombinant human His-ATG7 enzyme (O95352 whole entry): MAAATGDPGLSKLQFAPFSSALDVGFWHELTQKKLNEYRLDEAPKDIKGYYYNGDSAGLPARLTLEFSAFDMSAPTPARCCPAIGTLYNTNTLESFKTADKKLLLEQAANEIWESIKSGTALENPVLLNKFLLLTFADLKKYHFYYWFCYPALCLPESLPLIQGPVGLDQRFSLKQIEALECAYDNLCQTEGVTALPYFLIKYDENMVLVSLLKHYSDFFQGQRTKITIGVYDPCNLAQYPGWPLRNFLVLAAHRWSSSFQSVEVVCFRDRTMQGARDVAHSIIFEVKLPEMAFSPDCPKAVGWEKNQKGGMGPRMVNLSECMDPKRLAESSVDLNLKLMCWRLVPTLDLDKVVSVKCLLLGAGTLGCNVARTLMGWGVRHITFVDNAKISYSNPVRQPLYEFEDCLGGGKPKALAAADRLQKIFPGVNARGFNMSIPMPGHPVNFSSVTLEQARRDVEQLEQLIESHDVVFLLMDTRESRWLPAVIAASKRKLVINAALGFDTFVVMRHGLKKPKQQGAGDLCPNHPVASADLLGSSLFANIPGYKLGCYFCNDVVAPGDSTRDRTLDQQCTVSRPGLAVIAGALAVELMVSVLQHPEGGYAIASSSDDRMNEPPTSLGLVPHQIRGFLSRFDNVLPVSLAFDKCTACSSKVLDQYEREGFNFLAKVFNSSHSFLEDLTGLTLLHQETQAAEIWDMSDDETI

As to `Nc1ncnc2c1c(Sc1c[nH]c3ccccc13)nn2[C@H]1C[C@H](O)[C@@H](COS(N)(=O)=O)O1` [Compound I-170, {(2R,3S,5R)-5-[4-amino-3-(1H-indol-3-ylsulfanyl)-1H-pyrazolo[3,4-d]pyrimidin-1-yl]-3-hydroxytetrahydrofuran-2-yl}methyl sulfamate], the pIC50 is 6.30 to 7.00 and the inhibition at 0.111 µM is 50%.

As for `Nc1ncnc2c1c(C(F)(F)F)nn2[C@H]1C[C@H](O)[C@@H](COS(N)(=O)=O)O1` [Compound I-171, {(2R,3S,5R)-5-[4-amino-3-(trifluoromethyl)-1H-pyrazolo[3,4-d]pyrimidin-1-yl]-3-hydroxytetrahydrofuran-2-yl}methyl Sulfamate], the pIC50 was 6.30 to 7.00 and the inhibition at 0.111 µM turned out to be 48%.

On to `CCSc1nn([C@H]2C[C@H](O)[C@@H](COS(N)(=O)=O)O2)c2ncnc(N)c12` [Compound I-172, {(2R,3S,5R)-5-[4-amino-3-(ethylsulfanyl)-1H-pyrazolo[3,4-d]pyrimidin-1-yl]-3-hydroxytetrahydrofuran-2-yl}methyl Sulfamate], for which the pIC50 was 7.00 to 7.30 and the inhibition at 0.111 µM worked out at 68%.

For `COc1ccc(F)c(Sc2nn([C@H]3C[C@H](O)[C@@H](COS(N)(=O)=O)O3)c3ncnc(N)c23)c1` [Compound I-173, [(2R,3S,5R)-5-{4-amino-3-[(2-fluoro-5-methoxyphenyl)sulfanyl]-1H-pyrazolo[3,4-d]pyrimidin-1-yl}-3-hydroxytetrahydrofuran-2-yl]methyl sulfamate], the pIC50 was 7.30 to 7.70 and the inhibition at 0.111 µM was 81%.

On to `Nc1ncnc2c1c(Sc1nccs1)nn2[C@H]1C[C@H](O)[C@@H](COS(N)(=O)=O)O1` [Compound I-174, {(2R,3S,5R)-5-[4-amino-3-(1,3-thiazol-2-ylsulfanyl)-1H-pyrazolo[3,4-d]pyrimidin-1-yl]-3-hydroxytetrahydrofuran-2-yl}methyl sulfamate], for which the negative logarithm of the IC50 (pIC50) was 7.30 to 7.70 and the inhibition at 0.111 µM was 73%.

As for `Nc1ncnc2c1c(Sc1ccc3c(c1)OCO3)nn2[C@H]1C[C@H](O)[C@@H](COS(N)(=O)=O)O1` [Compound I-175, {(2R,3S,5R)-5-[4-amino-3-(1,3-benzodioxol-5-ylsulfanyl)-1H-pyrazolo[3,4-d]pyrimidin-1-yl]-3-hydroxytetrahydrofuran-2-yl}methyl sulfamate], the pIC50 is 7.00 to 7.30 and the inhibition at 0.111 µM was 66%.

As for `Cc1ccccc1Sc1nn([C@H]2C[C@H](O)[C@@H](COS(N)(=O)=O)O2)c2ncnc(N)c12` [Compound I-176, [(2R,3S,5R)-5-{4-amino-3-[(2-methylphenyl)sulfanyl]-1H-pyrazolo[3,4-d]pyrimidin-1-yl}-3-hydroxytetrahydrofuran-2-yl]methyl sulfamate], the pIC50 was 6.30 to 7.00 and the inhibition at 0.111 µM stood at 26%.

As for `CC(C)(C)Sc1nn([C@H]2C[C@H](O)[C@@H](COS(N)(=O)=O)O2)c2ncnc(N)c12` [Compound I-177, {(2R,3S,5R)-5-[4-amino-3-(tert-butylsulfanyl)-1H-pyrazolo[3,4-d]pyrimidin-1-yl]-3-hydroxytetrahydrofuran-2-yl}methyl sulfamate], the negative logarithm of the IC50 (pIC50) is 7.30 to 7.70 and the inhibition at 0.111 µM is 70%.

Consider `COc1ccc(Sc2nn([C@H]3C[C@H](O)[C@@H](COS(N)(=O)=O)O3)c3ncnc(N)c23)c(F)c1` [Compound I-178, [(2R,3S,5R)-5-{4-amino-3-[(2-fluoro-4-methoxyphenyl)sulfanyl]-1H-pyrazolo[3,4-d]pyrimidin-1-yl}-3-hydroxytetrahydrofuran-2-yl]methyl sulfamate], for which the pIC50 is 7.30 to 7.70 and the inhibition at 0.111 µM was found to be 74%.

On to `Nc1ncnc2c1c(Sc1cccc(Cl)c1)nn2[C@H]1C[C@H](O)[C@@H](COS(N)(=O)=O)O1` [Compound I-179, [(2R,3S,5R)-5-{4-amino-3-[(3-chlorophenyl)sulfanyl]-1H-pyrazolo[3,4-d]pyrimidin-1-yl}-3-hydroxytetrahydrofuran-2-yl]methyl sulfamate], for which the pIC50 is 6.30 to 7.00 and the inhibition at 0.111 µM came out at 50%.

For `CN(C)C(=O)CSc1nn([C@H]2C[C@H](O)[C@@H](COS(N)(=O)=O)O2)c2ncnc(N)c12` [Compound I-180, [(2R,3S,5R)-5-(4-amino-3-{[2-(dimethylamino)-2-oxoethyl]sulfanyl}-1H-pyrazolo[3,4-d]pyrimidin-1-yl)-3-hydroxytetrahydrofuran-2-yl]methyl sulfamate], the pIC50 was 6.30 to 7.00 and the inhibition at 0.111 µM was found to be 29%.

Consider `CC(C)Sc1nn([C@H]2C[C@H](O)[C@@H](COS(N)(=O)=O)O2)c2ncnc(N)c12` [Compound I-181, {(2R,3S,5R)-5-[4-amino-3-(isopropylsulfanyl)-1H-pyrazolo[3,4-d]pyrimidin-1-yl]-3-hydroxytetrahydrofuran-2-yl}methyl Sulfamate], for which the pIC50 is 7.30 to 7.70 and the inhibition at 0.123 µM came out at 81%.

Consider `Nc1ncnc2c1c(Sc1ccccc1F)nn2[C@H]1C[C@H](O)[C@@H](COS(N)(=O)=O)O1` [Compound I-182, [(2R,3S,5R)-5-{4-amino-3-[(2-fluorophenyl)sulfanyl]-1H-pyrazolo[3,4-d]pyrimidin-1-yl}-3-hydroxytetrahydrofuran-2-yl]methyl sulfamate], for which the negative-log IC50 (pIC50) was 7.00 to 7.30 and the inhibition at 0.111 µM is 66%.

For `Nc1ncnc2c1c(Sc1ccc3ccccc3n1)nn2[C@H]1C[C@H](O)[C@@H](COS(N)(=O)=O)O1` [Compound I-183, {(2R,3S,5R)-5-[4-amino-3-(quinolin-2-ylsulfanyl)-1H-pyrazolo[3,4-d]pyrimidin-1-yl]-3-hydroxytetrahydrofuran-2-yl}methyl sulfamate], the negative logarithm of the IC50 (pIC50) is 6.30 to 7.00 and the inhibition at 0.111 µM stood at 28%.

For the compound `CC(C)Oc1ccc(Sc2nn([C@H]3C[C@H](O)[C@@H](COS(N)(=O)=O)O3)c3ncnc(N)c23)cc1` [Compound I-184, [(2R,3S,5R)-5-{4-amino-3-[(4-isopropoxyphenyl)sulfanyl]-1H-pyrazolo[3,4-d]pyrimidin-1-yl}-3-hydroxytetrahydrofuran-2-yl]methyl sulfamate], the pIC50 is 7.00 to 7.30 and the inhibition at 0.111 µM amounted to 64%.

On to `CN1C(=O)Cc2cc(Sc3nn([C@H]4C[C@H](O)[C@@H](COS(N)(=O)=O)O4)c4ncnc(N)c34)ccc21` [Compound I-185, [(2R,3S,5R)-5-{4-amino-3-[(1-methyl-2-oxo-2,3-dihydro-1H-indol-5-yl)sulfanyl]-1H-pyrazolo[3,4-d]pyrimidin-1-yl}-3-hydroxytetrahydrofuran-2-yl]methyl sulfamate], for which the pIC50 was 7.00 to 7.30 and the inhibition at 0.111 µM worked out at 56%.

`Nc1ncnc2c1c(Sc1ccc3c(c1)CCO3)nn2[C@H]1C[C@H](O)[C@@H](COS(N)(=O)=O)O1` [Compound I-186, {(2R,3S,5R)-5-[4-amino-3-(2,3-dihydro-1-benzofuran-5-ylsulfanyl)-1H-pyrazolo[3,4-d]pyrimidin-1-yl]-3-hydroxytetrahydrofuran-2-yl}methyl sulfamate]: the pIC50 was 7.30 to 7.70 and the inhibition at 0.111 µM came to 74%.

With `Nc1ncnc2c1c(Sc1ccc(F)cc1)nn2[C@H]1C[C@H](O)[C@@H](COS(N)(=O)=O)O1` [Compound I-187, [(2R,3S,5R)-5-{4-amino-3-[(4-fluorophenyl)sulfanyl]-1H-pyrazolo[3,4-d]pyrimidin-1-yl}-3-hydroxytetrahydrofuran-2-yl]methyl sulfamate], the negative logarithm of the IC50 (pIC50) was 7.00 to 7.30 and the inhibition at 0.111 µM came out at 56%.

Turning to `N#CCSc1nn([C@H]2C[C@H](O)[C@@H](COS(N)(=O)=O)O2)c2ncnc(N)c12` [Compound I-188, [(2R,3S,5R)-5-{4-amino-3-[(cyanomethyl)sulfanyl]-1H-pyrazolo[3,4-d]pyrimidin-1-yl}-3-hydroxytetrahydrofuran-2-yl]methyl sulfamate], the pIC50 was 6.30 to 7.00 and the inhibition at 0.111 µM was determined as 37%.

Turning to `Nc1ncnc2c1c(Sc1ccc(Cl)cn1)nn2[C@H]1C[C@H](O)[C@@H](COS(N)(=O)=O)O1` [Compound I-189, [(2R,3S,5R)-5-{4-amino-3-[(5-chloropyridin-2-yl)sulfanyl]-1H-pyrazolo[3,4-d]pyrimidin-1-yl}-3-hydroxytetrahydrofuran-2-yl]methyl sulfamate], the negative-log IC50 (pIC50) is 7.00 to 7.30 and the inhibition at 0.111 µM is 60%.

`COc1nn([C@H]2C[C@H](O)[C@@H](COS(N)(=O)=O)O2)c2ncnc(N)c12` [Compound I-190, [(2R,3S,5R)-5-(4-amino-3-methoxy-1H-pyrazolo[3,4-d]pyrimidin-1-yl)-3-hydroxytetrahydrofuran-2-yl]methyl Sulfamate]: the negative-log IC50 (pIC50) was 6.30 to 7.00 and the inhibition at 0.123 µM was 35%.

As for `Cc1ccc(F)c(Sc2nn([C@H]3C[C@H](O)[C@@H](COS(N)(=O)=O)O3)c3ncnc(N)c23)c1` [Compound I-191, [(2R,3S,5R)-5-{4-amino-3-[(2-fluoro-5-methylphenyl)sulfanyl]-1H-pyrazolo[3,4-d]pyrimidin-1-yl}-3-hydroxytetrahydrofuran-2-yl]methyl sulfamate], the pIC50 is 7.00 to 7.30 and the inhibition at 0.111 µM is 63%.

Regarding `Nc1ncnc2c1c(I)nn2[C@H]1C[C@H](O)[C@@H](COS(N)(=O)=O)O1` [Compound I-192, [(2R,3S,5R)-5-(4-amino-3-iodo-1H-pyrazolo[3,4-d]pyrimidin-1-yl)-3-hydroxytetrahydrofuran-2-yl]methyl Sulfamate], the pIC50 was 7.00 to 7.30 and the inhibition at 0.111 µM was 61%.

As to `Cc1ccc(Sc2nn([C@H]3C[C@H](O)[C@@H](COS(N)(=O)=O)O3)c3ncnc(N)c23)cc1` [Compound I-193, [(2R,3S,5R)-5-{4-amino-3-[(4-methylphenyl)sulfanyl]-1H-pyrazolo[3,4-d]pyrimidin-1-yl}-3-hydroxytetrahydrofuran-2-yl]methyl sulfamate], the pIC50 is 6.30 to 7.00 and the inhibition at 0.111 µM came to 46%.
